# Experimental data as given in paper PMC4864809, “C‐type natriuretic peptide in combination with sildenafil attenuates proliferation of rhabdomyosarcoma cells” (Cancer Medicine, 2016).
# Assays:
# RD‐GC‐B cells [1] = test: Caspase‐3 activity (Nuc‐View 488 Caspase‐3 assay kit); format: cell-based, human; conditions: same conditions as proliferation assay, Nuc‐View 488 substrate, data not shown
# [2] = system: Notch, Wnt, Hedgehog, and PI3K/AKT/mTOR signaling pathways in RD‐GC‐B cells; test: Western blot of HES‐1, β‐catenin, GLI1 and phosphorylated Akt, RD‐GC‐B; format: cell-based, human; conditions: CNP 1 µM, sildenafil 100 µM, 4 hours
# Procedure: (§1) A total of 1 × 10^5 cells per well were plated in 12‐well plastic plates in complete media. Cells were serum‐starved with RPMI‐1640 medium containing 1% serum for 24 h, and then treated with CNP (1 μmol/L) and/or sildenafil (100 μmol/L) for indicated times. Cells were lysed with NP‐40 buffer (0.5% NP‐40, 10 mmol/L Tris [pH 7.6], 0.15 mol/L NaCl, 1.5 mmol/L […]) containing phosphatase inhibitor cocktail (Nacalai Tesque). Samples were electrophoresed on 4–15% gradient gels (Bio‐Rad, Hercules, CA, USA) and transferred onto polyvinylidene difluoride transfer membranes (Millipore Bedford, MA). Antibody binding was detected with an enhanced chemiluminescence detection system (Amersham Pharmacia Biotech, Piscataway, NJ).
# [3] = system: Raf/MEK/ERK signaling in RD‐GC‐B cells; test: Western blot of Raf/MEK/ERK phosphorylation, RD‐GC‐B; format: cell-based, human; conditions: for ERK phosphorylation: CNP 1 μmol/L and/or sildenafil 100 μmol/L, 1–8 h
# Procedure: as §1
# [4] = system: Raf/MEK/ERK signaling in RMS‐YM‐GC‐B cells; test: Western blot of Raf/MEK/ERK phosphorylation, RMS‐YM‐GC‐B; format: cell-based, human; conditions: for ERK phosphorylation: CNP 1 μmol/L and/or sildenafil 100 μmol/L, 1–8 h
# Procedure: as §1
# [5] = system: RD‐GC‐B and RMS‐YM‐GC‐B cells; test: Morphological appearance of cell death during proliferation assay; format: cell-based; conditions: during 96 h; CNP 1 μmol/L and/or sildenafil 100 μmol/L
# Procedure: (§2) A total of 2000 cells per well were seeded into 96‐well plates in 100 μL of culture medium. After 24 h, the wells were washed twice with 1% serum‐free RPMI‐1640 medium and subsequently incubated in this medium. Twenty‐four hours after serum deprivation, CNP (1 μmol/L) and/or sildenafil (100 μmol/L) were added, and the cells were incubated for 0–4 days. Cell proliferation was determined in sextuplicate using the Cell Counting Kit‐8 (Nacalai Tesque, Kyoto, Japan).
# RD‐GC‐B xenograft tumors = test: Xenograft efficacy study; format: in vivo; conditions: for tumor growth (tumor volume): CNP 2.5 μg/kg/min continuous s.c. infusion, versus vehicle; for tumor growth (tumor volume) / Ki67 labeling index: n = 7–8; for Ki67 labeling index: RD‐GC‐B tumors, immunohistochemistry, relative to the control group; for Phosphorylated ERK levels in xenograft tumors: pERK1/2 versus total ERK1/2, western blot densitometry, after 4 weeks of treatment
# Procedure: All animal experiments were performed according to a protocol approved by the Animal Care Ethics Committee of the National Cerebral and Cardiovascular Center Research Institute. Five‐week‐old male BALB/c nu/nu mice and 5‐week‐old male nonobese diabetic/severe combined immunodeficiency (NOD)⁄severe combined immunodeficiency (SCID) mice were purchased from Japan SLC (Shizuoka, Japan) and Oriental Yeast (Tokyo, Japan), respectively.
# RD‐GC‐B cells (1–3 × 10^7 cells) were subcutaneously implanted into the chest and abdominal area of NOD/SCID mice. When the subcutaneous tumors reached a diameter of 10–12 mm, they were resected, divided into 5‐mm pieces, and reimplanted into the chest area of BALB/c nu/nu mice. Ten days after tumor implantation, administration of CNP and/or sildenafil was initiated. CNP was continuously infused using an osmotic mini‐pump (Alzet Model 1003D; Duret Corporation, Cupertino, CA), as previously reported 14. CNP was subcutaneously administered at a rate of 2.5 μg/kg/min, and treatment continued for 4 weeks. Sildenafil was intraperitoneally administered at a dose of 20 mg/kg every other day for 4 weeks. Tumor volume was calculated by the formula: V (mm^3) = 0.5 × a × b ^2, where a is the longest tumor axis and b is the shortest tumor axis.
# Immunohitochemical staining was performed by the avidin‐biotin‐peroxidase complex (ABC) method using the Vectastain Elite ABC kit (Vector, Burlingame, CA) as described previously 14. Because the anti‐Ki67 antibody was mouse monoclonal antibody, a mouse on mouse immunodetection kit (Vector) was used. Images of immunohistochemical staining were captured using a FSX100 Bio Imaging Navigator microscope (Olympus, Tokyo, Japan). Ki67‐positive and ‐negative cells were counted using the CellSens Dimension software (Olympus). Ten randomly selected fields per section and 7–8 sections per animal were analyzed at 20 × magnification.
# RMS‐YM‐GC‐B cells = test: Cell proliferation assay (Cell Counting Kit‐8 / WST‐8), RMS‐YM‐GC‐B; format: cell-based, human; conditions: CNP 1 μmol/L, 96 h, 1% serum, versus solvent control, n = 6, three independent experiments
# Procedure: as §2
# [6] = molecular target: T1, GC‐B in RMS‐YM‐GC‐B cells (Homo sapiens, UniProt P20594); test: Measurement of intracellular cGMP (RIA) in RMS‐YM‐GC‐B cells; format: cell-based; conditions: RMS‐YM‐GC‐B cells stably expressing GC‐B
# T1 construct: host or cells: RD and RMS‐YM cells, retrovirally infected and puromycin-selected (RD‐GC‐B, RMS‐YM‐GC‐B)
# T1 sequence (P20594 23-1047): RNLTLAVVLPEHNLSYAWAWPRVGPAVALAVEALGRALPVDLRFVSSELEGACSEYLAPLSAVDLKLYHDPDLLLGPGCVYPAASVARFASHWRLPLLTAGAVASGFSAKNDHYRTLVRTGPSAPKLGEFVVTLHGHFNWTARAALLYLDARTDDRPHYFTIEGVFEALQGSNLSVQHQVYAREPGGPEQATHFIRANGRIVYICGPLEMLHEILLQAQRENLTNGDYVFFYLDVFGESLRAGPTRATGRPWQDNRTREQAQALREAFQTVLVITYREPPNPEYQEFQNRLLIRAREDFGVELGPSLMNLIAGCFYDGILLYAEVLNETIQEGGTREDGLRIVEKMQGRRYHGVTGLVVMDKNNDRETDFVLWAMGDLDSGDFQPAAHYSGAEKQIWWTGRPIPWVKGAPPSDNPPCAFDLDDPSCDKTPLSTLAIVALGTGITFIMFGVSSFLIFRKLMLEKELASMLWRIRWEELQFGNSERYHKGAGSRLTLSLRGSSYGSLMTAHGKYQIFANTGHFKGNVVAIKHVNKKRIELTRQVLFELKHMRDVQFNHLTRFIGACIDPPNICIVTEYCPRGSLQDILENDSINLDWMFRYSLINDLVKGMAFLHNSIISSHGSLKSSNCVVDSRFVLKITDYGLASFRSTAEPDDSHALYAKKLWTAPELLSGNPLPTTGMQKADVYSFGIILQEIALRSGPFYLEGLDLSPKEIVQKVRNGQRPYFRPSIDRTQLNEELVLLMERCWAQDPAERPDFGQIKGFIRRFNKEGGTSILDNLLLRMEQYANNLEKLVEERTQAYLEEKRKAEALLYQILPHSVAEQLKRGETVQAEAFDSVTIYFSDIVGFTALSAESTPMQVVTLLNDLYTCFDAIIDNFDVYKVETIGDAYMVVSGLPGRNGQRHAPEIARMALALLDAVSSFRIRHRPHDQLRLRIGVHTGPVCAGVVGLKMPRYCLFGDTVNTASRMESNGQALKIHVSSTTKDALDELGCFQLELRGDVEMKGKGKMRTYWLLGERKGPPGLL
# Source text: (§3) The plasmid used for preparing retrovirus vector expressing GC‐B‐FLAG (pCX4 puro GC‐B‐FLAG) was constructed by introducing the GC‐B‐FLAG fragment, amplified by polymerase chain reaction (PCR) from human GC‐B obtained from Promega (Madison, WI), into the NotI site of pCX4 puro. The vector was transfected into BOSC cells with pE‐eco and pGp (TAKARA BIO, Kyoto, Japan) using FuGENE6 (Promega) to produce ecotropic retrovirus. After transfection, culture supernatants were collected, and filtered. Retroviral infection of RD and RMS‐YM cells was performed using the retrovirus and Ecotropic Receptor Booster (TAKARA BIO). After infection, cells were selected with puromycin. These resultant cell lines are referred to as RD‐GC‐B or RMS‐YM‐GC‐B.
# (§4) Rhabdomyosarcoma cells were seeded onto 24‐well plastic plates and incubated for 24 h. After the cells were confluent as a monolayer, they were washed twice with 500 μL of serum‐free RPMI‐1640 and incubated in serum‐free medium for 24 h. CNP was dissolved in 5 mmol/L isobutylmethylxanthine (IBMX) at final concentrations of 1 nmol/L–10 μmol/L. Various concentrations of CNP were added to the medium, and the monolayer was incubated at 37°C for an additional 15 min. […] The cGMP content of the dried extract was quantitated using a radioimmunoassay (RIA) kit (Yamasa Shoyu, Tokyo, Japan).
# [7] = subcutaneous infusion of CNP at 2.5 μg/kg/min; cited from earlier work
# Source text: There are some limitations in this study. First, RMS cells stably expressing GC‐B expressed higher levels of GC‐B than clinical samples. However, given that the recurrent sample expressed a very high level of GC‐B, the findings made using RMS cells stably expressing GC‐B are still quite valuable.
# parental RD cells = test: Cell proliferation assay, parental RD; format: cell-based, human; conditions: data not shown
# Procedure: as §2
# [8] = system: ERK phosphorylation in parental RD cells; test: Western blot of ERK phosphorylation, parental RD; format: cell-based, human; conditions: data not shown
# Procedure: as §1
# [9] = molecular target: T2, GC‐B receptors in RD cells (Homo sapiens, UniProt P20594); test: Measurement of intracellular cGMP (RIA) in RD cells; format: cell-based; conditions: 15 min
# T2 construct: host or cells: RD cells
# T2 sequence (P20594 23-1047): T1 sequence (P20594 23-1047)
# Procedure: (§5) Rhabdomyosarcoma cells were seeded onto 24‐well plastic plates and incubated for 24 h. After the cells were confluent as a monolayer, they were washed twice with 500 μL of serum‐free RPMI‐1640 and incubated in serum‐free medium for 24 h. CNP was dissolved in 5 mmol/L isobutylmethylxanthine (IBMX) at final concentrations of 1 nmol/L–10 μmol/L. Various concentrations of CNP were added to the medium, and the monolayer was incubated at 37°C for an additional 15 min. The medium was rapidly removed by aspiration, and 400 μL of 70% ethanol containing 100 μmol/L hydrochloric acid (HCl) was added to lyse the cells. The cGMP content of the dried extract was quantitated using a radioimmunoassay (RIA) kit (Yamasa Shoyu, Tokyo, Japan).
# [10] = molecular target: T3, GC‐B receptors in RMS‐YM cells (Homo sapiens, UniProt P20594); test: Measurement of intracellular cGMP (RIA) in RMS‐YM cells; format: cell-based; conditions: 15 min
# T3 construct: host or cells: RMS‐YM cells
# T3 sequence (P20594 23-1047): T1 sequence (P20594 23-1047)
# Procedure: as §5
# [11] = Plasma CNP measurements (CNP RIA kit); format: in vivo, C57BL/6 mice; conditions: continuous s.c. infusion 2.5 μg/kg/min by osmotic mini‐pump, blood 3 days after implantation, n = 5 versus untreated n = 10
# Procedure: Osmotic mini‐pumps containing CNP were implanted subcutaneously in 6‐week‐old male C57BL/6 mice purchased from Japan SLC. CNP was administered at a rate of 2.5 μg/kg/min, and blood samples from these treated mice and untreated mice were withdrawn 3 days after the implantation. CNP content was determined using a CNP RIA kit (Phoenix Pharmaceuticals, Belmont, CA).
# [12] = system: ERK phosphorylation in parental RMS‐YM cells; test: Western blot of ERK phosphorylation, parental RMS‐YM; format: cell-based, human; conditions: data not shown
# Procedure: as §1
# GC‐B in RD‐GC‐B cells = molecular target: T4, GC‐B in RD‐GC‐B cells (Homo sapiens, UniProt P20594); test: Measurement of intracellular cGMP (RIA) in RD‐GC‐B cells; format: cell-based; conditions: RD‐GC‐B cells stably expressing GC‐B
# T4 construct: host or cells: RD and RMS‐YM cells, retrovirally infected and puromycin-selected (RD‐GC‐B, RMS‐YM‐GC‐B)
# T4 sequence (P20594 23-1047): T1 sequence (P20594 23-1047)
# Source text: as §3, §4
# RD‐GC‐B cells [13] = test: Cell proliferation assay (Cell Counting Kit‐8 / WST‐8), RD‐GC‐B; format: cell-based, human; conditions: CNP 1 μmol/L, 96 h, 1% serum, versus solvent control, n = 6, three independent experiments
# Procedure: as §2
# parental RMS‐YM cells = test: Cell proliferation assay, parental RMS‐YM; format: cell-based, human; conditions: data not shown
# Procedure: as §2
# [14] = sildenafil 20 mg/kg i.p. every other day, 4 weeks
# [15] = CNP 1 μmol/L, sildenafil 100 μmol/L
# [16] = CNP 1 nmol/L–10 μmol/L with IBMX, 37°C, serum-free, RIA, average of four wells
molecule,measurement,setting,value
CCCc1nn(C)c2c(=O)[nH]c(-c3cc(S(=O)(=O)N4CCN(C)CC4)ccc3OCC)nc12 [sildenafil],caspase‐3 activity (apoptosis),RD‐GC‐B cells [1],not significantly induced
same,"Expression of HES‐1, β‐catenin, and GLI1, and phosphorylation of Akt",[2],not changed
same,ERK phosphorylation,[3],did not cause dephosphorylate ERK
same,ERK phosphorylation,[4],did not cause dephosphorylate ERK
same,morphological appearance of cell death,[5],not observed
same,tumor growth (tumor volume),RD‐GC‐B xenograft tumors; [14],did not suppress tumor growth significantly
same,Ki67 labeling index,RD‐GC‐B xenograft tumors,significantly reduced
same,Phosphorylated ERK levels in xenograft tumors,RD‐GC‐B xenograft tumors,~30 % of control levels
C‐type natriuretic peptide [CNP],caspase‐3 activity (apoptosis),RD‐GC‐B cells [1],not significantly induced
same,cell proliferation,RMS‐YM‐GC‐B cells,significantly attenuated
same,CNP‐dependent cGMP production,[6],robust increases
same,hypotension,[7],does not cause hypotension
same,effect on proliferation,parental RD cells,no effect
same,"Expression of HES‐1, β‐catenin, and GLI1, and phosphorylation of Akt",[2],not changed
same,ERK phosphorylation,[3],dephosphorylation of ERK
same,phosphorylation of Raf‐1 and MEK,[3]; [15],Dephosphorylation
same,reduction in ERK phosphorylation,[8],no effect
same,CNP concentration at which cGMP levels almost reached a plateau,[9]; with IBMX,~1 µmol/L
same,intracellular cGMP levels,[9]; [16],increased the intracellular cGMP levels in a dose‐dependent manner
same,CNP concentration at which cGMP levels almost reached a plateau,[10]; with IBMX,~1 µmol/L
same,intracellular cGMP levels,[10]; [16],increased the intracellular cGMP levels in a dose‐dependent manner
same,ERK phosphorylation,[4],dephosphorylation of ERK
same,phosphorylation of Raf‐1 and MEK,[4]; [15],Dephosphorylation
same,morphological appearance of cell death,[5],not observed
same,plasma concentration of CNP,[11],significantly increased
same,body weight of mice during treatment (tolerability),"RD‐GC‐B xenograft tumors; 4 weeks, CNP 2.5 μg/kg/min s.c., sildenafil 20 mg/kg i.p. every other day, relative to control group",did not induce weight loss
same,tumor growth (tumor volume),RD‐GC‐B xenograft tumors; [14],did not suppress tumor growth significantly
same,Ki67 labeling index,RD‐GC‐B xenograft tumors,significantly reduced
same,Phosphorylated ERK levels in xenograft tumors,RD‐GC‐B xenograft tumors,~30 % of control levels
same,reduction in ERK phosphorylation,[12],no effect
same,CNP‐dependent cGMP production,GC‐B in RD‐GC‐B cells,robust increases
same,cell proliferation,RD‐GC‐B cells [13],significantly attenuated
same,effect on proliferation,parental RMS‐YM cells,no effect
